Assay results: ChEMBL document CHEMBL3044972, “Synthesis, anti-inflammatory, and cytotoxicity evaluation of 9,10-dihydroanthracene-9,10-,-succinimide and bis-succinimide derivatives” (2013)

tested on: HepG2; assay: Cytotoxicity against Homo sapiens (human) HepG2 cells assessed as growth inhibition at 10 uM after 48 hr by SRB assay; type: functional; settings: HepG2, 48 h, read-out: GI

Row | SMILES | inhibition of growth at 10 µM [%]
1 | O=C1CCCN1CCN1C(=O)C2C3c4ccccc4C(c4ccccc43)C2C1=O (stereo unspecified) | 41
2 | O=C1C2C3c4ccccc4C(c4ccccc43)C2C(=O)N1C1CC1 (stereo unspecified) | 53
3 | O=C1C2C3c4ccccc4C(c4ccccc43)C2C(=O)N1Cc1ccccn1 (stereo unspecified) | 35
4 | CC(CN1C(=O)C2C3c4ccccc4C(c4ccccc43)C2C1=O)N1C(=O)C2C3c4ccccc4C(c4ccccc43)C2C1=O (stereo unspecified) | 41
5 | O=C1C2C3c4ccccc4C(c4ccccc43)C2C(=O)N1Cc1ccccc1 (stereo unspecified) | 52
6 | O=C1C2C3c4ccccc4C(c4ccccc43)C2C(=O)N1CC1CCCO1 (stereo unspecified) | 55
7 | CC1(C)CC(N2C(=O)C3C4c5ccccc5C(c5ccccc54)C3C2=O)CC(C)(C)N1 (stereo unspecified) | 40
8 | O=C1C2C3c4ccccc4C(c4ccccc43)C2C(=O)N1CCCN1CCN(CCCN2C(=O)C3C4c5ccccc5C(c5ccccc54)C3C2=O)CC1 (stereo unspecified) | 33
9 | O=C1C2C3c4ccccc4C(c4ccccc43)C2C(=O)N1Cc1ccco1 (stereo unspecified) | 38
10 | C[C@@H]1C[C@@H]([C@H](O)CC2CC(=O)NC(=O)C2)C(=O)[C@@H](C)C1 [CYCLOHEXIMIDE] | 15
11 | O=C1C2C3c4ccccc4C(c4ccccc43)C2C(=O)N1CCN1C(=O)C2C3c4ccccc4C(c4ccccc43)C2C1=O (stereo unspecified) | 29
12 | O=C1C2C3c4ccccc4C(c4ccccc43)C2C(=O)N1CCN1CCCCC1 (stereo unspecified) | 38

tested on: PA-1; assay: Cytotoxicity against Homo sapiens (human) PA1 cells assessed as growth inhibition at 10 uM after 48 hr by SRB assay; type: functional; settings: PA-1, 48 h, read-out: GI

Row | SMILES | inhibition of growth at 10 µM [%]
13 | O=C1CCCN1CCN1C(=O)C2C3c4ccccc4C(c4ccccc43)C2C1=O (stereo unspecified) | 33
14 | O=C1C2C3c4ccccc4C(c4ccccc43)C2C(=O)N1C1CC1 (stereo unspecified) | 37
15 | O=C1C2C3c4ccccc4C(c4ccccc43)C2C(=O)N1Cc1ccccn1 (stereo unspecified) | 47
16 | CC(CN1C(=O)C2C3c4ccccc4C(c4ccccc43)C2C1=O)N1C(=O)C2C3c4ccccc4C(c4ccccc43)C2C1=O (stereo unspecified) | 14
17 | O=C1C2C3c4ccccc4C(c4ccccc43)C2C(=O)N1Cc1ccccc1 (stereo unspecified) | 43
18 | O=C1C2C3c4ccccc4C(c4ccccc43)C2C(=O)N1CC1CCCO1 (stereo unspecified) | 31
19 | CC1(C)CC(N2C(=O)C3C4c5ccccc5C(c5ccccc54)C3C2=O)CC(C)(C)N1 (stereo unspecified) | 31
20 | O=C1C2C3c4ccccc4C(c4ccccc43)C2C(=O)N1CCCN1CCN(CCCN2C(=O)C3C4c5ccccc5C(c5ccccc54)C3C2=O)CC1 (stereo unspecified) | 16
21 | O=C1C2C3c4ccccc4C(c4ccccc43)C2C(=O)N1Cc1ccco1 (stereo unspecified) | 27
22 | C[C@@H]1C[C@@H]([C@H](O)CC2CC(=O)NC(=O)C2)C(=O)[C@@H](C)C1 [CYCLOHEXIMIDE] | 32
23 | O=C1C2C3c4ccccc4C(c4ccccc43)C2C(=O)N1CCN1C(=O)C2C3c4ccccc4C(c4ccccc43)C2C1=O (stereo unspecified) | 9
24 | O=C1C2C3c4ccccc4C(c4ccccc43)C2C(=O)N1CCN1CCCCC1 (stereo unspecified) | 25

tested on: T47D; assay: Cytotoxicity against Homo sapiens (human) T47D cells assessed as growth inhibition at 10 uM after 48 hr by SRB assay; type: functional; settings: read-out: GI

Row | SMILES | inhibition of growth at 10 µM [%]
25 | O=C1CCCN1CCN1C(=O)C2C3c4ccccc4C(c4ccccc43)C2C1=O (stereo unspecified) | 26
26 | O=C1C2C3c4ccccc4C(c4ccccc43)C2C(=O)N1C1CC1 (stereo unspecified) | 21
27 | O=C1C2C3c4ccccc4C(c4ccccc43)C2C(=O)N1Cc1ccccn1 (stereo unspecified) | 26
28 | CC(CN1C(=O)C2C3c4ccccc4C(c4ccccc43)C2C1=O)N1C(=O)C2C3c4ccccc4C(c4ccccc43)C2C1=O (stereo unspecified) | 2
29 | O=C1C2C3c4ccccc4C(c4ccccc43)C2C(=O)N1Cc1ccccc1 (stereo unspecified) | 22
30 | O=C1C2C3c4ccccc4C(c4ccccc43)C2C(=O)N1CC1CCCO1 (stereo unspecified) | 23
31 | CC1(C)CC(N2C(=O)C3C4c5ccccc5C(c5ccccc54)C3C2=O)CC(C)(C)N1 (stereo unspecified) | 10
32 | O=C1C2C3c4ccccc4C(c4ccccc43)C2C(=O)N1CCCN1CCN(CCCN2C(=O)C3C4c5ccccc5C(c5ccccc54)C3C2=O)CC1 (stereo unspecified) | 33
33 | O=C1C2C3c4ccccc4C(c4ccccc43)C2C(=O)N1Cc1ccco1 (stereo unspecified) | 40
34 | C[C@@H]1C[C@@H]([C@H](O)CC2CC(=O)NC(=O)C2)C(=O)[C@@H](C)C1 [CYCLOHEXIMIDE] | 9
35 | O=C1C2C3c4ccccc4C(c4ccccc43)C2C(=O)N1CCN1C(=O)C2C3c4ccccc4C(c4ccccc43)C2C1=O (stereo unspecified) | 5
36 | O=C1C2C3c4ccccc4C(c4ccccc43)C2C(=O)N1CCN1CCCCC1 (stereo unspecified) | 20

tested on: HCT-15; assay: Cytotoxicity against Homo sapiens (human) HCT15 cells assessed as growth inhibition at 10 uM after 48 hr by SRB assay; type: functional; settings: HCT-15, 48 h, read-out: GI

Row | SMILES | inhibition of growth at 10 µM [%]
37 | O=C1CCCN1CCN1C(=O)C2C3c4ccccc4C(c4ccccc43)C2C1=O (stereo unspecified) | 16
38 | O=C1C2C3c4ccccc4C(c4ccccc43)C2C(=O)N1C1CC1 (stereo unspecified) | 19
39 | O=C1C2C3c4ccccc4C(c4ccccc43)C2C(=O)N1Cc1ccccn1 (stereo unspecified) | 7
40 | CC(CN1C(=O)C2C3c4ccccc4C(c4ccccc43)C2C1=O)N1C(=O)C2C3c4ccccc4C(c4ccccc43)C2C1=O (stereo unspecified) | 9
41 | O=C1C2C3c4ccccc4C(c4ccccc43)C2C(=O)N1Cc1ccccc1 (stereo unspecified) | 12
42 | O=C1C2C3c4ccccc4C(c4ccccc43)C2C(=O)N1CC1CCCO1 (stereo unspecified) | 22
43 | CC1(C)CC(N2C(=O)C3C4c5ccccc5C(c5ccccc54)C3C2=O)CC(C)(C)N1 (stereo unspecified) | 20
44 | O=C1C2C3c4ccccc4C(c4ccccc43)C2C(=O)N1CCCN1CCN(CCCN2C(=O)C3C4c5ccccc5C(c5ccccc54)C3C2=O)CC1 (stereo unspecified) | 10
45 | O=C1C2C3c4ccccc4C(c4ccccc43)C2C(=O)N1Cc1ccco1 (stereo unspecified) | 15
46 | C[C@@H]1C[C@@H]([C@H](O)CC2CC(=O)NC(=O)C2)C(=O)[C@@H](C)C1 [CYCLOHEXIMIDE] | 12
47 | O=C1C2C3c4ccccc4C(c4ccccc43)C2C(=O)N1CCN1C(=O)C2C3c4ccccc4C(c4ccccc43)C2C1=O (stereo unspecified) | 10
48 | O=C1C2C3c4ccccc4C(c4ccccc43)C2C(=O)N1CCN1CCCCC1 (stereo unspecified) | 6

tested on: NCI-H522; assay: Cytotoxicity against Homo sapiens (human) NCI-H522 cells assessed as growth inhibition at 10 uM after 48 hr by SRB assay; type: functional; settings: NCI-H522, 48 h, read-out: GI

Row | SMILES | inhibition of growth at 10 µM [%]
49 | O=C1CCCN1CCN1C(=O)C2C3c4ccccc4C(c4ccccc43)C2C1=O (stereo unspecified) | 15
50 | O=C1C2C3c4ccccc4C(c4ccccc43)C2C(=O)N1C1CC1 (stereo unspecified) | 24
51 | O=C1C2C3c4ccccc4C(c4ccccc43)C2C(=O)N1Cc1ccccn1 (stereo unspecified) | 20
52 | CC(CN1C(=O)C2C3c4ccccc4C(c4ccccc43)C2C1=O)N1C(=O)C2C3c4ccccc4C(c4ccccc43)C2C1=O (stereo unspecified) | 20
53 | O=C1C2C3c4ccccc4C(c4ccccc43)C2C(=O)N1Cc1ccccc1 (stereo unspecified) | 62
54 | O=C1C2C3c4ccccc4C(c4ccccc43)C2C(=O)N1CC1CCCO1 (stereo unspecified) | 30
55 | CC1(C)CC(N2C(=O)C3C4c5ccccc5C(c5ccccc54)C3C2=O)CC(C)(C)N1 (stereo unspecified) | 15
56 | O=C1C2C3c4ccccc4C(c4ccccc43)C2C(=O)N1CCCN1CCN(CCCN2C(=O)C3C4c5ccccc5C(c5ccccc54)C3C2=O)CC1 (stereo unspecified) | 17
57 | O=C1C2C3c4ccccc4C(c4ccccc43)C2C(=O)N1Cc1ccco1 (stereo unspecified) | 25
58 | C[C@@H]1C[C@@H]([C@H](O)CC2CC(=O)NC(=O)C2)C(=O)[C@@H](C)C1 [CYCLOHEXIMIDE] | 13
59 | O=C1C2C3c4ccccc4C(c4ccccc43)C2C(=O)N1CCN1C(=O)C2C3c4ccccc4C(c4ccccc43)C2C1=O (stereo unspecified) | 11
60 | O=C1C2C3c4ccccc4C(c4ccccc43)C2C(=O)N1CCN1CCCCC1 (stereo unspecified) | 23

tested on: Rattus norvegicus; assay: Anti-inflammatory activity against albino Charles Foster Rattus norvegicus (rat) assessed as inhibition of carrageenan-induced paw edema at 50 mg/kg, po administered 30 min prior to carrageenan injection measured after 1-3 hr by plethysmometer; type: functional; parameters: scale not given: the % may be the effect or the level left; settings: not given

Row | SMILES | Activity [%]
61 | O=C1CCCN1CCN1C(=O)C2C3c4ccccc4C(c4ccccc43)C2C1=O (stereo unspecified) | 17
62 | O=C1C2C3c4ccccc4C(c4ccccc43)C2C(=O)N1C1CC1 (stereo unspecified) | 23
63 | O=C1C2C3c4ccccc4C(c4ccccc43)C2C(=O)N1Cc1ccccn1 (stereo unspecified) | 14
64 | CC(CN1C(=O)C2C3c4ccccc4C(c4ccccc43)C2C1=O)N1C(=O)C2C3c4ccccc4C(c4ccccc43)C2C1=O (stereo unspecified) | 22
65 | O=C1C2C3c4ccccc4C(c4ccccc43)C2C(=O)N1Cc1ccccc1 (stereo unspecified) | 37
66 | O=C1C2C3c4ccccc4C(c4ccccc43)C2C(=O)N1CC1CCCO1 (stereo unspecified) | 34
67 | CC1(C)CC(N2C(=O)C3C4c5ccccc5C(c5ccccc54)C3C2=O)CC(C)(C)N1 (stereo unspecified) | 32
68 | O=C1C2C3c4ccccc4C(c4ccccc43)C2C(=O)N1CCCN1CCN(CCCN2C(=O)C3C4c5ccccc5C(c5ccccc54)C3C2=O)CC1 (stereo unspecified) | 15
69 | O=C1C2C3c4ccccc4C(c4ccccc43)C2C(=O)N1Cc1ccco1 (stereo unspecified) | 15
70 | O=C1C2C3c4ccccc4C(c4ccccc43)C2C(=O)N1CCN1C(=O)C2C3c4ccccc4C(c4ccccc43)C2C1=O (stereo unspecified) | 20
71 | O=C1C2C3c4ccccc4C(c4ccccc43)C2C(=O)N1CCN1CCCCC1 (stereo unspecified) | 27
